# Tests used:
# [1] = target: T1, PR3 (Homo sapiens, UniProt P24158); test: Recombinant NSPs isolated enzyme assay, PR3; format: biochemical; settings: read-out: PR3 Enz (IC50: μM)
# T1 construct: purchased MedChemExpress
# Excerpt: The protocol for evaluating the inhibitory potency of compounds against other cathepsins referred to the CTSC activity assay. Recombinant human CTSB, CTSL, CTSS and CTSK for testing were also purchased from R&D Systems Biotechnology Company. Recombinant human Cat G, NE, and PR3 For testing were purchased from MedChemExpress. A multi-functional microplate reader was used to measure the absorption of Z-Leu-Arg-AMC at excitation/emission wavelengths of 380/460 nm to assess the activity changes of CTSB and CTSL, while the absorption of MCA-Arg-Pro-Lys-Pro-Val-Glu-NVAL-Trp-Arg-Lys(DNP)-NH2 at 320/405 nm was measured to evaluate the activity changes of CTSS and CTSK. Different assay buffers were prepared for diluting samples and measuring the activities of specific NSPs: a buffer containing 50 mM Tris and 750 mM NaCl (pH 7.4) was used for NE and PR3; a buffer containing 50 mM Tris, 750 mM NaCl, 5 mM EDTA (pH 7.4) was used for Cat G; and a buffer containing 25 mM MES, 50 mM NaCl, 5 mM DTT (pH 6.0) was used for CTSC. Synthetic substrates were employed to assess the activities of NSPs and CTSC: H-Gly-Arg-AMC for CTSC, N-MeSuc-Ala-Ala-Pro-Val-pNA for NE, aminobenzoyl-Val-Ala-Asp-Cys-Ala-Asp-Gln-ethylenediamine 2,4-dinitrophenyl for PR3, and N-Suc-Ala-Ala-Pro-Phe-pNA for Cat G. Each group of tests was independently repeated at least 3 times, and IC50 values were calculated using SPSS 10.0.
# [2] = Safety evaluation in vivo (body weight, toxic reactions, H&E staining); settings: mice, high-dose group (30 mg/kg)
# Method: A total of 25 C57BL/6 mice (6–8 weeks old, weighing approximately 20 g, with equal numbers of males and females) were randomly divided into five groups. Mice in the compound-treated groups were orally administered the compound once daily at doses of 0.3, 3, and 30 mg/kg for 7 consecutive days. […] Mice in the normal group were given an equal volume of normal saline at the same time points. The body weight, death rate, and behavior were observed and recorded daily for one week. After 7 days, bone marrow and blood samples were collected from the mice and lysed using 8% Triton X-100 buffer. The lysates were stored at −20 °C until testing. The activity assays for CTSC and NSPs were performed as described above. The mice were anesthetized and the tissues were taken for H&E staining.
# [3] = Cytotoxicity assay, U937 cell line; format: cell-based; settings: human, U937 cells
# Method: RAW264.7 cells and U937 cells in the logarithmic growth phase were counted and diluted, and the concentrations of the single-cell suspensions of the two types of cells were adjusted to 5 × 10^4 cells/mL and 3 × 10^4 cells/mL, respectively. After thorough mixing, the cells were seeded into a 96-well plate, with 100 μL of cell suspension added to each well. Prepare the working solution of test compounds using the corresponding medium as the solvent, with the concentration of working solution being 2 times the final test concentration (2.5 μM, 5 μM, 10 μM, 20 μM, and 40 μM). Twenty-four hours after cell seeding, the compound working solutions were added to the compound test wells, and the same volume of medium was added to the negative control wells, followed by continuous incubation for another 24 h. Only the wells with the same volume but without cells served as the blank control group. The CellTiter-Lumi™ luminescent cell viability assay kit (Beyotime Biotechnology, Shanghai, China, C0065XL) was used to detect cell viability according to the standard operating procedures. Each group of tests was independently repeated at least 3 times, and IC50 values were calculated using SPSS 10.0.
# [4] = system: IL-1β, TNF-α, MCP-1, CXCL2 in serum; test: AIA model, serum cytokines by ELISA; format: in vivo, Sprague-Dawley rats; settings: rat AIA, high-dose group (60 mg/kg)
# Method: (§1) Thirty 4-week-old male Sprague-Dawley rats (weighing 120–130 g) were randomly divided into 6 groups (5 rats per group) after 1 week of adaptive feeding, namely the normal group, model group, low-dose experimental group (15 mg/kg), medium-dose experimental group (30 mg/kg), high-dose experimental group (60 mg/kg), and positive control group (30 mg/kg). Starting from Day 0 of the experiment, rats in the administration groups and model group were injected intradermally with 0.1 mL of CFA into the left hind paw to induce AIA, while rats in the normal group were injected intradermally with an equal volume (0.1 mL) of normal saline as a control. After 13 consecutive days of feeding, rats treated with CFA successfully developed typical AIA symptoms. […] During the experiment, the body weight, mental state, activity ability, hair color changes, and paw appearance changes of the rats were observed and recorded daily. In addition, on Day 0 of the experiment (baseline period), the basic paw volume of all rats was accurately measured using a plethysmometer, which served as a reference standard for subsequent evaluation of inflammation severity. From Day 13 to Day 28 of the experiment, the paw volume of the rats was measured repeatedly every 3 days. The degree of paw swelling was quantified by calculating the change in paw volume relative to the baseline. […] The cytokine levels in serum were measured. […]
# [5] = system: NE; test: AIA model, serum NE activity; format: in vivo, Sprague-Dawley rats; settings: rat AIA, high dose 60 mg/kg gavage, 15 days
# Method: as §1
# [6] = system: Cat G; test: AIA model, serum Cat G activity; format: in vivo, Sprague-Dawley rats; settings: rat AIA, high dose 60 mg/kg gavage, 15 days
# Method: as §1
# T1 sequence (P24158 28-256): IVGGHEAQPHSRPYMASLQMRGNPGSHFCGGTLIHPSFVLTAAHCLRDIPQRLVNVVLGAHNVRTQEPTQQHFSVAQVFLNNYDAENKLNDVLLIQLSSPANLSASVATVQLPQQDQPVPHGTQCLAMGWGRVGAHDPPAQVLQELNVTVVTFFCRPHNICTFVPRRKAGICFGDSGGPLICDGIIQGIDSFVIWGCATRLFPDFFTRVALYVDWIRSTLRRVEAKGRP
smiles,measurement,setting,value
"C[C@@H]1C[C@H]2OC(=O)[C@@]3(C)CCC[C@@](C)([C@@H]23)[C@@]1(O)CCc1ccoc1 [Marrubiin, marrubiin]",IC50,[1],> 10 µM
same,toxic reactions and body weight,[2]; 7-day continuous administration,no toxic reactions or significant weight loss were observed
same,"H&E staining of tissues and organs (heart, liver, spleen, lung, kidney)",[2]; 7 days,No pathological changes
same,IC50 at 24 h,[3],> 10 µM
same,"serum levels of IL-1β, TNF-α, MCP-1, CXCL2",[4],significantly lower than those in model group and control group
same,"serum NE activity, % of control group",[5],~47%
same,"serum Cat G activity, % of control group",[6],~64%

# — article PMC12610274, “Identification of Marrubiin as a Cathepsin C Inhibitor for Treating Rheumatoid Arthritis” (Molecules, 2025)
